Patent US6555535B2, “Tricyclic biphenyl sulfonamide matrix metalloproteinase inhibitors” (Warner-Lambert Company, priority 2001, dated 2003)

Columns and labels:
Type in all cases: biochemical
MMP-13CD = MMP-13CD (Homo sapiens, UniProt P45452); test: thiopeptolide hydrolysis assay, catalytic domain of collagenase 3; conditions: thiopeptolide substrate, HEPES pH 7.0, 22° C.
Description: (§1) The assays measure the amount by which a test compound reduces the hydrolysis of a thiopeptolide substrate catalyzed by a matrix metalloproteinase enzyme. Such assays are described in detail by Ye et al., in Biochemistry, 1992;31(45):11231-11235, which is incorporated herein by reference.
(§2) Thiopeptolide substrates show virtually no decomposition or hydrolysis at or below neutral pH in the absence of a matrix metalloproteinase enzyme. A typical thiopeptolide substrate commonly utilized for assays is Ac-Pro-Leu-Gly-thioester-Leu-Leu-Gly-OEt. A 100 μL assay mixture will contain 50 mM of N-2-hydroxyethylpiperazine-N′-2-ethanesulfonic acid buffer (“HEPES”) at pH 7.0, 10 mM CaCl2, 100 μM thiopeptolide substrate, and 1 mM 5,5′-dithio-bis-(2-nitro-benzoic acid) (DTNB). The thiopeptolide substrate concentration may be varied from, for example, 10 to 800 μM to obtain Km and Kcat values. The change in absorbance at 405 nm is monitored on a Thermo Max microplate reader (Molecular Devices, Menlo Park, Calif.) at room temperature (22° C.). The calculation of the amount of hydrolysis of the thiopeptolide substrate is based on E412=13600 M^−1 cm^−1 for the DTNB-derived product 3-carboxy-4-nitrothiophenoxide. Assays are carried out with and without matrix metalloproteinase inhibitor compounds, and the amount of hydrolysis is compared for a determination of inhibitory activity of the test compounds.
(§3) Several representative compounds have been evaluated for their ability to inhibit various matrix metalloproteinase enzymes. In Table 1, MMP-1FL refers to full length interstitial collagenase; MMP-2FL refers to full length Gelatinase A; MMP-3CD refers to the catalytic domain of stromelysin-1; MMP-7FL refers to full length matrilysin; MMP-9FL refers to full length Gelatinase B; MMP-13CD refers to the catalytic domain of collagenase 3; and MMP-14CD refers to the catalytic domain of MMP-14. Test compounds were evaluated at various concentrations in order to determine their respective IC50 values, the micromolar concentration of compound required to cause a 50% inhibition of the catalytic activity of the respective enzyme.

MMP-14CD = MMP-14CD (Homo sapiens, UniProt P50281); test: thiopeptolide hydrolysis assay, catalytic domain of MMP-14; conditions: thiopeptolide substrate, HEPES pH 7.0, 22° C.
Description: as §1, §2, §3

MMP-2FL = target: T1, MMP-2FL (Homo sapiens, UniProt P08253); test: thiopeptolide hydrolysis assay, full length Gelatinase A; conditions: thiopeptolide substrate, HEPES pH 7.0, 22° C.
T1 sequence (P08253 110-660): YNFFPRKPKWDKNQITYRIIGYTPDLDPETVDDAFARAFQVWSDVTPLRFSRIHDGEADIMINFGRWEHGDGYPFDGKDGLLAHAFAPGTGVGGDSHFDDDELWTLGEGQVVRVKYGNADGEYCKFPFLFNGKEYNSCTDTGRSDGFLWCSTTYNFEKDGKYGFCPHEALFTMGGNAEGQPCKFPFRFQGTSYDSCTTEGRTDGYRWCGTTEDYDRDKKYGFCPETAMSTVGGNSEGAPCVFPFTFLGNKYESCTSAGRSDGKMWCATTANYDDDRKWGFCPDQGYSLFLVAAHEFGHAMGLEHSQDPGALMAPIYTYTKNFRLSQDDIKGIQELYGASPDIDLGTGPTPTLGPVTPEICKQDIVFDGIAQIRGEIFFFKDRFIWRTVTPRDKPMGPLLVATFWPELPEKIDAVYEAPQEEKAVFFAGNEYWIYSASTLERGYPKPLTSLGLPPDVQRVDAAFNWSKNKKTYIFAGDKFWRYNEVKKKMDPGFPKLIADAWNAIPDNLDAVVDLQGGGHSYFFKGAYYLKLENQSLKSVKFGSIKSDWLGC
Description: as §1, §2, §3

MMP-1FL = target: T2, MMP-1FL (Homo sapiens, UniProt P03956); test: thiopeptolide hydrolysis assay, full length interstitial collagenase; conditions: thiopeptolide substrate, HEPES pH 7.0, 22° C.
T2 sequence (P03956 100-469): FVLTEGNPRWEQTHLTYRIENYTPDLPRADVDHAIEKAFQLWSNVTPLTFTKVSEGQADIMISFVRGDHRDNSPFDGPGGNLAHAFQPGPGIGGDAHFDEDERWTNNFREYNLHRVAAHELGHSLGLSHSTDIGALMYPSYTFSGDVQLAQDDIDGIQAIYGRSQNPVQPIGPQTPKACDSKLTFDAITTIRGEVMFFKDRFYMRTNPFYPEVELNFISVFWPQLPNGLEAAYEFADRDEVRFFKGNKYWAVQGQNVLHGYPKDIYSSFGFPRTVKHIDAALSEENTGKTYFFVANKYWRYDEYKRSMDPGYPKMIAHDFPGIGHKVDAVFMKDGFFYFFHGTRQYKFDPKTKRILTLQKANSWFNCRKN
Description: as §1, §2, §3

MMP-7FL = target: T3, MMP-7FL (Homo sapiens, UniProt P09237); test: thiopeptolide hydrolysis assay, full length matrilysin; conditions: thiopeptolide substrate, HEPES pH 7.0, 22° C.
T3 sequence (P09237 95-267): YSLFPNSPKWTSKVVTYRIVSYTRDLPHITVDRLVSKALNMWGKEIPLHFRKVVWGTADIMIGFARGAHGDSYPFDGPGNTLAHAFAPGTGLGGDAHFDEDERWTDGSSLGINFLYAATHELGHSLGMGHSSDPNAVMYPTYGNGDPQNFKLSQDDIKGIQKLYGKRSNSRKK
Description: as §1, §2, §3

MMP-9FL = MMP-9FL (Homo sapiens, UniProt P14780); test: thiopeptolide hydrolysis assay, full length Gelatinase B; conditions: thiopeptolide substrate, HEPES pH 7.0, 22° C.
Description: as §1, §2, §3

MMP-3CD = MMP-3CD (Homo sapiens, UniProt P08254); test: thiopeptolide hydrolysis assay, catalytic domain of stromelysin-1; conditions: thiopeptolide substrate, MES buffer pH 6.0
Description: as §1, §2, §3
It should be appreciated that the assay buffer used with MMP-3CD was 50 mM of 2-morpholinoethanesulfonic acid monohydrate (“MES”) at pH 6.0, rather than the HEPES buffer at pH 7.0 described above.

MMP-3CD, sequence (P08254 100-272 limits assumed): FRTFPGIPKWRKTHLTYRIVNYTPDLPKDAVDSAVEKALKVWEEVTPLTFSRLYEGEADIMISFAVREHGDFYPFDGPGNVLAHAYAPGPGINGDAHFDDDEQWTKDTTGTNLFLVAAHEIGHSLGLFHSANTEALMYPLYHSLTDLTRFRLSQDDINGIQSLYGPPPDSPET
MMP-9FL, sequence (P14780 94-707): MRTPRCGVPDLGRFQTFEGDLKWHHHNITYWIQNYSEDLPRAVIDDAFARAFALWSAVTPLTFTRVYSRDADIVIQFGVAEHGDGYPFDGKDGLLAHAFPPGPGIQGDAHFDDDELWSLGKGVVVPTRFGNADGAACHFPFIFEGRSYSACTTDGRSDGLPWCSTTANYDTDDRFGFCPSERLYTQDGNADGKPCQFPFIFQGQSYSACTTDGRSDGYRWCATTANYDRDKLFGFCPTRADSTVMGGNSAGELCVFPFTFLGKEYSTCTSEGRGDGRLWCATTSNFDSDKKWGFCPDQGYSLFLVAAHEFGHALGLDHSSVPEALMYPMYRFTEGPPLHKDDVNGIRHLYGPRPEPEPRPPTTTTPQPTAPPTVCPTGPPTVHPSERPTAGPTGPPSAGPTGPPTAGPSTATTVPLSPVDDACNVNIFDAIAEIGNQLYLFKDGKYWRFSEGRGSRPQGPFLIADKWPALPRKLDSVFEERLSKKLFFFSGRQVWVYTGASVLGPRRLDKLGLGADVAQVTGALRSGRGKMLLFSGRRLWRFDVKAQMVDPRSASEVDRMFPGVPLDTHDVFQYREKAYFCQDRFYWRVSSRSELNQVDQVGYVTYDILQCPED

Row | SMILES | IC50 (MMP-13CD) [nM] | IC50 (MMP-14CD) [nM] | IC50 (MMP-2FL) [nM] | IC50 (MMP-1FL) [nM] | IC50 (MMP-7FL) [nM] | IC50 (MMP-9FL) [nM] | IC50 (MMP-3CD) [nM]
1 | CC1(C)SCCN(S(=O)(=O)c2ccc3c4c(oc3c2)CCCC4)[C@H]1C(=O)O [Example 3, (S)-2,2-Dimethyl-4-(6,7,8,9-tetrahydro-dibenzofuran-3-sulfonyl)thiomorpholine-3-carboxylic Acid] | 1310 | 150 | 390 | 6900 | 100000 | 54000 | 39
2 | CC1(C)SCCN(S(=O)(=O)c2ccc3c4c(oc3c2)CCCC4)[C@H]1C(=O)NO [Example 4, (S)-2,2-Dimethyl-4-(6,7,8,9-tetrahydro-dibenzofuran-3-sulfonyl)thiomorpholine-3-carboxylic Hydroxamide] | 12 | 52 | 82 | 69 | 230 | 210 | 9
3 | CC1(C)C(C(=O)O)N(S(=O)(=O)c2ccc3c4c(oc3c2)CCCCC4)CCS1(=O)=O (stereo not shown) [Example 6, 2,2-Dimethyl-1,1-dioxo-4-(6,7,8,9-tetrahydro-5H-10-oxa-benzo{a}azulene-2-sulfonyl)-1l^6-thiomorpholine-3-carboxylic Acid] | 2100 | 93 | 600 | 40000 | 41000 | 70000 | 37
4 | CC1(C)C(C(=O)NO)N(S(=O)(=O)c2ccc3c4c(oc3c2)CCCCC4)CCS1(=O)=O (stereo not shown) [Example 7, 2,2-Dimethyl-1,1-dioxo-4-(6,7,8,9-tetrahydro-5H-10-oxa-benzo{a}azulene-2-sulfonyl)-1l^6-thiomorpholine-3-carboxylic Acid Hydroxyamide] | 6.2 | 53 | 220 | 970 | 420 | 450 | 15
